SMILES strings stand for the structures.

What is called IC50 is the point on the concentration scale where inhibition reaches its midpoint.

One experiment addresses T1, EGFR (d746-750) (Homo sapiens, UniProt P00533, DEL746-750).
T1 construct: purchased SignalChem E10-122JG
The experiment in a line: Biochemical EGFR inhibition assay (Caliper mobility shift), EGFR (d746-750). The settings on record: biochemical Caliper mobility shift assay, EGFR Exon 19-del enzyme; read-out: Enz EGFR Exon 19-del IC50. The method in brief: (§1)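 Compounds were titrated against enzyme phosphorylating a 5-FAM peptide (2.5 µM) in 100 mM HEPES, pH 7.5, 10 mM MgCl2, 1 mM DTT. ATP was held at 1.0 mM or at Km, and reactions ran at 25 °C until 10–20% conversion before EDTA quench. Apparent IC50 values come from percent activity plotted against log concentration.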

In another experiment the target is T2, EGFR L858R (Homo sapiens, UniProt P00533, L858R).
T2 construct: purchased SignalChem E10-122BG
The experiment in a line: Biochemical EGFR inhibition assay (Caliper mobility shift), EGFR L858R. The settings on record: biochemical Caliper mobility shift assay, EGFR L858R enzyme; read-out: Enz EGFR L858R IC50. The method in brief:
as §1

Experiment [1] concerns the target intracellular phosphorylation of EGFR (Tyr1068) in PC-9 cells (Homo sapiens, UniProt P00533, DEL746-750). The experiment in a line: PC-9 pEGFR AlphaLISA assay. The format is cell-based. As to conditions: 4 hours incubation, read-out: Phos EGFR PC9 IC50. The method in brief: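 PC-9 cells (EGFR del746-750) in phenol-free DMEM/10% FBS, adhered overnight, then exposed to 10-point 4-fold compound dilutions for 4 h at 37 °C. Lysates assayed for pEGFR Tyr1068 by AlphaLISA SureFire Ultra; IC50 from percent pEGFR inhibition vs log concentration.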

T1 sequence (P00533 with tags, fused parts or gaps DEL746-750 limits assumed): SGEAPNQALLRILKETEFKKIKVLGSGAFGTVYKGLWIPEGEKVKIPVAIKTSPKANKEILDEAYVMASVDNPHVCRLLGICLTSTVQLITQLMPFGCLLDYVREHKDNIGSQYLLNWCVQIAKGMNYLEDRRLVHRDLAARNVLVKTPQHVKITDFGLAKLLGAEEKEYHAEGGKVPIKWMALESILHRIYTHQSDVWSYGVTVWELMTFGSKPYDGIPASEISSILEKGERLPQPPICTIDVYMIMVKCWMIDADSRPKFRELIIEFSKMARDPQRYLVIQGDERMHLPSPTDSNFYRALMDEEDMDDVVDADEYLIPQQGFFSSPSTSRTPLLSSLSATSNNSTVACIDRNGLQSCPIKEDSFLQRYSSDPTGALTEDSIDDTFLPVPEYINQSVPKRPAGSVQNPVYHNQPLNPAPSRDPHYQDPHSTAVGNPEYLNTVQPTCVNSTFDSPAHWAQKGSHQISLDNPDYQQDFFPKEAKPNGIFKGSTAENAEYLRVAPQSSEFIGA
Sequence of intracellular phosphorylation of EGFR (Tyr1068) in PC-9 cells (P00533 with tags, fused parts or gaps DEL746-750): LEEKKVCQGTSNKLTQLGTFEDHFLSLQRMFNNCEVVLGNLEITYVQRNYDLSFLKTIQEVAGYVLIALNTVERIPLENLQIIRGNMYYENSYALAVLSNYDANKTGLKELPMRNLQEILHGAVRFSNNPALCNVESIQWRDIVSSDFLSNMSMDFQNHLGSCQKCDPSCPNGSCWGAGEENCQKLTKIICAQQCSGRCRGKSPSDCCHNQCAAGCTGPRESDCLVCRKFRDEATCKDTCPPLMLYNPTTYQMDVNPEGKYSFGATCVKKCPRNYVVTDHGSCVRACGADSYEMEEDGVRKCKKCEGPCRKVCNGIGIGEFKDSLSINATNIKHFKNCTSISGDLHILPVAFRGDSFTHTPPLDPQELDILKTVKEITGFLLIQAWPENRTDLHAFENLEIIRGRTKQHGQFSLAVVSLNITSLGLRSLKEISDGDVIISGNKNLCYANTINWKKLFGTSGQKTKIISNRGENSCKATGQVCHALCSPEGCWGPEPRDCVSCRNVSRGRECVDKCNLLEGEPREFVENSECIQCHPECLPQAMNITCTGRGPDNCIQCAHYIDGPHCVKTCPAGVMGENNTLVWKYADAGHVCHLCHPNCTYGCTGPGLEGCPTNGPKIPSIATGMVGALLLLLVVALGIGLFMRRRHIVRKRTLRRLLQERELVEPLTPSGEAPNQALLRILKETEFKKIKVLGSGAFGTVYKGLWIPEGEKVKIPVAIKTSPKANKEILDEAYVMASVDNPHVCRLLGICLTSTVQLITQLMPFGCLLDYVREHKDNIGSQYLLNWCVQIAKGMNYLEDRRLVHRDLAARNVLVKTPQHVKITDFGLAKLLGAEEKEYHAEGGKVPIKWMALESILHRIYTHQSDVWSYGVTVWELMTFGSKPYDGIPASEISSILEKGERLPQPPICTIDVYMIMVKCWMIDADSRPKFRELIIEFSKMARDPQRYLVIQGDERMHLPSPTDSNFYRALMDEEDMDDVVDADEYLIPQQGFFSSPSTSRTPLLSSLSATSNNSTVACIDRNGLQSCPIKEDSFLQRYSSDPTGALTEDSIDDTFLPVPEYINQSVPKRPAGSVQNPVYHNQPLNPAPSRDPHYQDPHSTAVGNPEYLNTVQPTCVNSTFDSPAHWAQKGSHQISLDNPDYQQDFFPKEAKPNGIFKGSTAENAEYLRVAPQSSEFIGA
T2 sequence (P00533 25-1210 L858R): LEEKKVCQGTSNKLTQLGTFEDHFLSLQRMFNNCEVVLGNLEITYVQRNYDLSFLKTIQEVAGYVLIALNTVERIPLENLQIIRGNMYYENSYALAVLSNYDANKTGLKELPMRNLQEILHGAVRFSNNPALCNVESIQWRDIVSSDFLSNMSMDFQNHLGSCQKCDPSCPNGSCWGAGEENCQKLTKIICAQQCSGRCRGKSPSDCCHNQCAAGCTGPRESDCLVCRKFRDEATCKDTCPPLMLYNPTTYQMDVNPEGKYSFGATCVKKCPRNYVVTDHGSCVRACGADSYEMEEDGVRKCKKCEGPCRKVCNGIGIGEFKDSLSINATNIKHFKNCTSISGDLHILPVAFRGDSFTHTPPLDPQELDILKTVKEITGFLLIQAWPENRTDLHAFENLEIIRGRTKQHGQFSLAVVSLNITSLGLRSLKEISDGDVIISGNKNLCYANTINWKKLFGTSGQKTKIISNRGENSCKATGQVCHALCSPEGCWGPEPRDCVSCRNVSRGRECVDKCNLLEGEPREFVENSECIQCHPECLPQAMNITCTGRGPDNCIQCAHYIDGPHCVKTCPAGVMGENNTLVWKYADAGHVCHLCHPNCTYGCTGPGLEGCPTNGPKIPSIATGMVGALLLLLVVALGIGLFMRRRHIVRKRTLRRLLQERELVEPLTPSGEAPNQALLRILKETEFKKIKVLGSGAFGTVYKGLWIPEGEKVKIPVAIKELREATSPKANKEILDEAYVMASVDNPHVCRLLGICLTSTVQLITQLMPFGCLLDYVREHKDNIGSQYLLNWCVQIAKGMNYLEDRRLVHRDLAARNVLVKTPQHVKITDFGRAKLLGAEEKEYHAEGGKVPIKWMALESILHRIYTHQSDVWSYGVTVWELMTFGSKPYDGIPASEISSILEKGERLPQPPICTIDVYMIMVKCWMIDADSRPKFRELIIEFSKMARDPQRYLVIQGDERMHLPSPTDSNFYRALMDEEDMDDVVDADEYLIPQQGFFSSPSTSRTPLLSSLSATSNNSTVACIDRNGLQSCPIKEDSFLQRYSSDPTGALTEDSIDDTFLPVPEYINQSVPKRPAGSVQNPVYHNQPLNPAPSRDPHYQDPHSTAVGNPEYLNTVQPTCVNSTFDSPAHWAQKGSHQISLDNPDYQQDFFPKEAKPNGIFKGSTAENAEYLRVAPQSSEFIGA

With `C[C@@H](Oc1cc(N2CCN(C)[C@@H](C)C2)cc2ncnc(Nc3ccc4ncsc4c3F)c12)C1COC1` (single isomer, unassigned) [Example 99], the IC50 at EGFR (d746-750) is at most 0.01 µM; at EGFR L858R, 0.0101 to 0.05 µM; in experiment [1], 0.0101 to 0.05 µM.

Take `C[C@@H]1CN(c2cc(O[C@H](C)C3COC3)c3c(Nc4ccc5ncsc5c4F)ncnc3c2)CCN1` (single isomer, unassigned) [Example 100]: the IC50 was at most 0.01 µM on EGFR (d746-750), 0.0101 to 0.05 µM on EGFR L858R and 0.0101 to 0.05 µM in experiment [1].

As for `C[C@@H]1CN(c2cc(O[C@H](C)C3COC3)c3c(Nc4ccc5ncsc5c4F)ncnc3c2)CCN1` (single isomer, unassigned) [Example 101], the IC50 (on EGFR (d746-750); on EGFR L858R; in experiment [1]) was 0.0101 to 0.05 µM in each case.

For `C[C@@H]1CN(c2cc(O[C@H](C)C3COC3)c3c(Nc4ccc5ncsc5c4F)ncnc3c2)CCN1C` (single isomer, unassigned) [Example 102], the IC50 (on EGFR (d746-750); on EGFR L858R; in experiment [1]) was at most 0.01 µM throughout.

Consider `C[C@@H]1CN(c2cc(O[C@H](C)C3COC3)c3c(Nc4ccc5ncsc5c4F)ncnc3c2)CCN1C` (single isomer, unassigned) [Example 103], for which the IC50 is at most 0.01 µM at EGFR (d746-750), 0.0101 to 0.05 µM at EGFR L858R and at most 0.01 µM in experiment [1].

For the molecule `C[C@@H]1CNCCN1c1cc(O[C@H](C)C2COC2)c2c(Nc3ccc4ncsc4c3F)ncnc2c1` (single isomer, unassigned) [Example 104], the IC50 at EGFR (d746-750) was at most 0.01 µM; at EGFR L858R, at most 0.01 µM; in experiment [1] it was 0.0101 to 0.05 µM.

Take `C[C@@H]1CNCCN1c1cc(O[C@H](C)C2COC2)c2c(Nc3ccc4ncsc4c3F)ncnc2c1` (single isomer, unassigned) [Example 105]: the figures for the IC50 (on EGFR (d746-750); at EGFR L858R; in experiment [1]) were at most 0.01 µM, 0.0101 to 0.05 µM and 0.0101 to 0.05 µM, respectively.

On to `C[C@@H]1CN(C)CCN1c1cc(O[C@H](C)C2COC2)c2c(Nc3ccc4ncsc4c3F)ncnc2c1` (single isomer, unassigned) [Example 106, N-(7-((R)-2,4-dimethylpiperazin-1-yl)-5-((R)-1-(oxetan-3-yl)ethoxy)quinazolin-4-yl)-7-fluorobenzo[d]thiazol-6-amine or N-(7-((R)-2,4-dimethylpiperazin-1-yl)-5-((S)-1-(oxetan-3-yl)ethoxy)quinazolin-4-yl)-7-fluorobenzo[d]thiazol-6-amine], for which the figures for the IC50 (on EGFR (d746-750); on EGFR L858R; in experiment [1]) were at most 0.01 µM, at most 0.01 µM and 0.0101 to 0.05 µM, respectively.

Consider `C[C@@H]1CN(C)CCN1c1cc(O[C@H](C)C2COC2)c2c(Nc3ccc4ncsc4c3F)ncnc2c1` (single isomer, unassigned) [Example 107, N-(7-((R)-2,4-dimethylpiperazin-1-yl)-5-((R)-1-(oxetan-3-yl)ethoxy)quinazolin-4-yl)-7-fluorobenzo[d]thiazol-6-amine or N-(7-((R)-2,4-dimethylpiperazin-1-yl)-5-((S)-1-(oxetan-3-yl)ethoxy)quinazolin-4-yl)-7-fluorobenzo[d]thiazol-6-amine], for which the IC50 is at most 0.01 µM on EGFR (d746-750), 0.0101 to 0.05 µM on EGFR L858R and 0.0101 to 0.05 µM in experiment [1].

For `COCC[C@@H](C)Oc1cc(-c2cnn(C)c2)cc2ncnc(Nc3ccc4ncsc4c3F)c12` (single isomer, unassigned) [Example 108], the IC50 (on EGFR (d746-750); at EGFR L858R; in experiment [1]) was at most 0.01 µM each time.

For the molecule `C[C@@H](Oc1cc(-c2cnn(C)c2)cc2ncnc(Nc3ccc4ncsc4c3F)c12)C1CCOCC1` (single isomer, unassigned) [Example 110], the results for the IC50 (on EGFR (d746-750); at EGFR L858R; in experiment [1]) were at most 0.01 µM, at most 0.01 µM and 0.0101 to 0.05 µM, respectively.

For the molecule `C[C@@H](Oc1cc(-c2cnn(C)c2)cc2ncnc(Nc3ccc4ncsc4c3F)c12)C1CCOCC1` (single isomer, unassigned) [Example 111], the IC50 (at EGFR (d746-750); at EGFR L858R; in experiment [1]) was at most 0.01 µM throughout.

With `C[C@@H](CN(C)C)Oc1cc(N2CCN(C)CC2)cc2ncnc(Nc3ccc4ncsc4c3)c12` (single isomer, unassigned) [Example 116], the figures for the IC50 (on EGFR (d746-750); at EGFR L858R; in experiment [1]) were 0.0101 to 0.05 µM, above 0.0501 µM and above 0.0501 µM, respectively.

Consider `C[C@@H](CN(C)C)Oc1cc(N2CCN(C)CC2)cc2ncnc(Nc3ccc4ncsc4c3)c12` (single isomer, unassigned) [Example 117], for which the IC50 (at EGFR (d746-750); on EGFR L858R; in experiment [1]) was 0.0101 to 0.05 µM throughout.

`COC[C@H](C)Oc1cc(N2CCN(C(C)C)C2=O)cc2ncnc(Nc3ccc4ncsc4c3)c12` (single isomer, unassigned) [Example 118]: the IC50 (at EGFR (d746-750); at EGFR L858R; in experiment [1]) was at most 0.01 µM throughout.

For `COc1cn(C)nc1-c1cc(O[C@H](C)C2COC2)c2c(Nc3ccc4ncsc4c3)ncnc2c1` (single isomer, unassigned) [Example 120], the IC50 (on EGFR (d746-750); on EGFR L858R; in experiment [1]) was at most 0.01 µM throughout.

For the molecule `COc1cn(C)nc1-c1cc(O[C@H](C)C2COC2)c2c(Nc3ccc4ncsc4c3)ncnc2c1` (single isomer, unassigned) [Example 121], the concentration for half-maximal inhibition (IC50) at EGFR (d746-750) was at most 0.01 µM; on EGFR L858R, at most 0.01 µM; in experiment [1], 0.0101 to 0.05 µM.

On to `CC(Oc1cc(-c2cn[nH]c2)cc2ncnc(Nc3ccc4ncsc4c3)c12)C1COC1` (single isomer, unassigned) [Example 122], for which the IC50 (on EGFR (d746-750); on EGFR L858R; in experiment [1]) was at most 0.01 µM in each case.

As for `C[C@@H](Oc1cc(-c2cnn(CC(C)(C)O)c2)cc2ncnc(Nc3ccc4ncsc4c3)c12)C1COC1` (single isomer, unassigned) [Example 127], the IC50 (at EGFR (d746-750); on EGFR L858R; in experiment [1]) was at most 0.01 µM throughout.

Take `C[C@H]([C@@H](C)Oc1cc(-c2cnn(C)c2)cc2ncnc(Nc3ccc4ncsc4c3)c12)N(C)C` (single isomer, unassigned) [Example 143]: the IC50 (on EGFR (d746-750); on EGFR L858R; in experiment [1]) was at most 0.01 µM each time.

Consider `C[C@@H](Oc1cc(-c2cnn(C)c2)cc2ncnc(Nc3ccc4ncsc4c3)c12)[C@H](C)N(C)C` (single isomer, unassigned) [Example 144], for which the values for the IC50 (at EGFR (d746-750); at EGFR L858R; in experiment [1]) were at most 0.01 µM, 0.0101 to 0.05 µM and 0.0101 to 0.05 µM, respectively.

Turning to `C[C@@H](Oc1cc(-c2cnn(C)c2)cc2ncnc(Nc3ccc4ncsc4c3)c12)[C@H](C)N(C)C` (single isomer, unassigned) [Example 145], the IC50 (at EGFR (d746-750); at EGFR L858R; in experiment [1]) was at most 0.01 µM each time.

As for `Cn1cc(-c2cc(OC[C@]34COC[C@H]3C4)c3c(Nc4ccc5ncsc5c4)ncnc3c2)cn1` (single isomer, unassigned) [Example 147], the IC50 on EGFR (d746-750) is at most 0.01 µM; on EGFR L858R it was 0.0101 to 0.05 µM; in experiment [1], 0.0101 to 0.05 µM.

As to `Cn1cc(-c2cc(OC[C@]34COC[C@H]3C4)c3c(Nc4ccc5ncsc5c4)ncnc3c2)cn1` (single isomer, unassigned) [Example 148], the IC50 on EGFR (d746-750) is at most 0.01 µM; on EGFR L858R, at most 0.01 µM; in experiment [1] it was 0.0101 to 0.05 µM.

These data come from patent US20260207602A1, “EGFR INHIBITORS” (Blueprint Medicines Corporation, priority 2022, published 2026).
